Assay results: paper PMC9868454, “Exploring novel targets of sitagliptin for type 2 diabetes mellitus: Network pharmacology, molecular docking, molecular dynamics simulation, and SPR approaches” (Frontiers in Endocrinology, 2023)

Biological target: angiotensin-converting enzyme 2 (ACE2) (Homo sapiens, UniProt Q9BYF1)
Assay: SPR (Biacore T200, ACE2 coupled to CM5 chip, steady-state affinity fit)
Type: binding

Chain of angiotensin-converting enzyme 2 (ACE2) (Q9BYF1 18-805): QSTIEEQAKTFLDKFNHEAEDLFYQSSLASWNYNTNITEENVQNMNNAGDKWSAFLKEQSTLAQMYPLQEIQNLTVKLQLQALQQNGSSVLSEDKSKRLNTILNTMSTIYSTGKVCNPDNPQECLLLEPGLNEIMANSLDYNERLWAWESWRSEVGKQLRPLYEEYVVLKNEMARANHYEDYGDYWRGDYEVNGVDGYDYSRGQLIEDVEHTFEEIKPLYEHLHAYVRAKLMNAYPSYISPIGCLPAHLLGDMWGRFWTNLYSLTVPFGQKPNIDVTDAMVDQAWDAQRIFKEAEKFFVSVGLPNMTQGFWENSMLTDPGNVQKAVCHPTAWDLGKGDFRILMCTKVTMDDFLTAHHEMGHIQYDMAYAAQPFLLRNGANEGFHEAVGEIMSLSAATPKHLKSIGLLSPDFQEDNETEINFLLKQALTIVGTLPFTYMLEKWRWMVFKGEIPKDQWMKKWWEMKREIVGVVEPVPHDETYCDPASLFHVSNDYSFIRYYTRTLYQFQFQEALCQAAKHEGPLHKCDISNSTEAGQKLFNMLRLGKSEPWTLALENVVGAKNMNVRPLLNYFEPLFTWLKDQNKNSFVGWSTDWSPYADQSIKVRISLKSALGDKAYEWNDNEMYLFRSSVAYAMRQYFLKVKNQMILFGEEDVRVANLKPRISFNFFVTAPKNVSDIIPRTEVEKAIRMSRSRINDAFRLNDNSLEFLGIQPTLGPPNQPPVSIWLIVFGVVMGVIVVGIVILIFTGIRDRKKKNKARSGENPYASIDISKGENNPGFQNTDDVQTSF

Question: Which Kd does the source give for `N[C@@H](CC(=O)N1CCn2c(nnc2C(F)(F)F)C1)Cc1cc(F)c(F)cc1F` [sitagliptin] here?
Answer: The Kd was 35.1 nM.
